The values below are quoted from earlier work in patent US20070292393A1, “USE OF THYMOSIN ALPHA 1 FOR PREPARING A MEDICAMENT FOR THE TREATMENT OF STAGE IV MALIGNANT MELANOMA” (SIGMA-TAU INDUSTRIE FARMACEUTICHE RIUNITE S.P.A., priority 2006, published 2007).

Structures are written as SMILES.

This data set deals with metastatic melanoma.

On to `CN(C)/N=N/c1[nH]cnc1C(N)=O` [DTIC, Dacarbazine], for which the “effect of responses on patients' overall survival” value is on record as “no evidence”. Besides, for the setting “recent publications (J Clin Oncol, ASCO 2004)”, the “actual overall responses to DTIC” value is 5.5-6.8%. For the same compound, where the note is “responses short-lived”, the duration of responses entry was “three to six”.
